Measured values reported in patent US6472348B1, “Pyridone derivatives and herbicides” (Kumiai Chemical Industry Co., Ltd., priority 1996, dated 2002).

Experiments:
Format in all cases: in vivo
barnyardgrass (Ec) = test: Test Example 2: herbicidal effects by upland field soil treatment; conditions: 100 g of the active ingredient per 10 ares;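 further: grade of growth control; 5 = at least 90%; 4 = 70 to 90%; 3 = 50 to 70%; 2 = 30 to 50%; 1 = 10 to 30%; 0 = under 10%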
Excerpt: (§1) (Test on Herbicidal Effects by Upland Field Soil Treatment)

Digitaria ciliaris (Di) = test: as above; conditions: 100 g of the active ingredient per 10 ares;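 further: grade of growth control; 5 = at least 90%; 4 = 70 to 90%; 3 = 50 to 70%; 2 = 30 to 50%; 1 = 10 to 30%; 0 = under 10%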
Excerpt: as §1

slender amaranth (Am) [1] = test: Test Example 11: crop plant selectivity by upland field foliage treatment (corn), herbicidal effects; design: scale not given here; conditions: dose 1.6 g ai/10a
Outline: (§2)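 Corn with pale smartweed, slender amaranth, common lambsquarters and China jute sown in sand-filled pots and grown 2 weeks in a greenhouse before foliage treatment. Herbicidal effect and crop phytotoxicity scored on day 14 after treatment against a rating standard.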

pale smartweed (Po) [2] = test: as above; design: scale not given here; conditions: dose 1.6 g ai/10a
Outline: as §2

[3] = tested on: common lambsquarters (Ch); test: Test Example 7: crop plant selectivity by upland field soil treatment (corn), herbicidal effects; design: scale not given here; conditions: 21st day after application
Outline: (§3)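 Corn and weed seeds were sown in sand-filled pots and covered with soil. After application, plants were grown in a greenhouse, and herbicidal effect and crop phytotoxicity were scored against fixed rating standards on day 21.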

green foxtail (Se) = test: as above; design: scale not given here; conditions: 21st day after application
Outline: as §3

slender amaranth (Am) [4] = test: as above; design: scale not given here; conditions: 21st day after application
Outline: as §3

pale smartweed (Po) [5] = test: as above; design: scale not given here; conditions: 21st day after application
Outline: as §3

China jute (Ab) = test: as above; design: scale not given here; conditions: 21st day after application
Outline: as §3

[6] = evaluated on the 21st day after application
[7] = upland field foliage treatment (corn test), 14th day after treatment
[8] = 21st day after the application, index 0-5 of Table 47

Structure (SMILES) | Herbicidal effects Ec (barnyardgrass (Ec); [6]) | Herbicidal effects Di (Digitaria ciliaris (Di); [6]) | Herbicidal effects Am (slender amaranth (Am) [1]; [7]) | Herbicidal effects Po (pale smartweed (Po) [2]; [7]) | Herbicidal effects Ch ([3]; dose 1.6 g ai/10a) | Herbicidal effects Ch ([3]; dose 6.3 g ai/10a) | Herbicidal effects Se (green foxtail (Se); dose 1.6 g ai/10a) | Herbicidal effects Se (green foxtail (Se); dose 6.3 g ai/10a) | Herbicidal effects Am (slender amaranth (Am) [4]; dose 1.6 g ai/10a) | Herbicidal effects Am (slender amaranth (Am) [4]; dose 6.3 g ai/10a) | Herbicidal effects Po (pale smartweed (Po) [5]; dose 1.6 g ai/10a) | Herbicidal effects Po (pale smartweed (Po) [5]; dose 6.3 g ai/10a) | Herbicidal effects Ab (China jute (Ab); dose 1.6 g ai/10a) | Herbicidal effects Ab (China jute (Ab); dose 6.3 g ai/10a) | Herbicidal effects Am (slender amaranth (Am) [1]; slender amaranth, foliage treatment, evaluated on 14th day after treatment, index per Table 47) | Herbicidal effects Po (pale smartweed (Po) [2]; pale smartweed, foliage treatment, evaluated on 14th day after treatment, index per Table 47) | Herbicidal effects Ec (barnyardgrass (Ec); [8]) | Herbicidal effects Di (Digitaria ciliaris (Di); [8])
C#CC(C)Oc1cc(Cl)cc(F)c1-c1ccc(C(F)(F)F)n(C)c1=O (stereo not shown) [1′-5] | 5 | 5 | 5 | 5 | 5 | 5 | 4 | 5 | 5 | 5 | 5 | 5 | 5 | 5 |  |  |  | 
C=CC(C)Oc1cc(-c2ccc(C(F)(F)F)n(C)c2=O)c(F)cc1Cl (stereo not shown) [Compound 1-182] | 5 | 5 | 5 | 5 |  | 5 |  | 5 |  | 5 |  | 5 |  | 5 |  |  |  | 
CCON=Cc1cc(-c2ccc(C(F)(F)F)n(C)c2=O)c(F)cc1Cl [Compound 1-187] | 5 | 5 | 5 | 5 |  | 5 |  | 5 |  | 5 |  | 5 |  | 5 |  |  |  | 
CCOC(=O)CON=Cc1cc(-c2ccc(C(F)(F)F)n(C)c2=O)c(F)cc1Cl [Compound 1-191] | 5 | 5 | 5 | 5 |  | 5 |  | 5 |  | 5 |  | 5 |  | 5 |  |  |  | 
C=CC(O)c1cc(-c2ccc(C(F)(F)F)n(C)c2=O)c(F)cc1Cl (stereo not shown) [Compound 1-197] | 5 | 5 | 5 | 5 |  | 5 |  | 5 |  | 5 |  | 5 |  | 5 |  |  |  | 
CSCOc1cc(-c2ccc(C(F)(F)F)n(C)c2=O)c(F)cc1Cl [Compound 1-208] | 5 | 5 | 5 | 5 |  | 5 |  | 5 |  | 5 |  | 4 |  | 5 |  |  |  | 
C#CCN1C(=O)COc2cc(Cl)c(-c3ccc(C(F)(F)F)n(C)c3=O)cc21 [Compound 2-25] | 5 | 5 | 5 | 5 | 5 |  | 5 |  | 5 |  | 5 |  | 5 |  |  |  |  | 
C=CCN1C(=O)COc2cc(Cl)c(-c3ccc(C(F)(F)F)n(C)c3=O)cc21 [Compound 2-26] | 5 | 5 | 5 | 5 |  | 5 |  | 5 |  | 5 |  | 5 |  | 5 |  |  |  | 
CCCc1cc2c(-c3ccc(C(F)(F)F)n(C)c3=O)c(F)cc(Cl)c2o1 [Compound 4-3] | 5 | 5 | 5 | 5 |  | 5 |  | 5 |  | 5 |  | 5 |  | 5 |  |  |  | 
CCc1cc2c(Cl)cc(F)c(-c3ccc(C(F)(F)F)n(C)c3=O)c2o1 [Compound 5-2] | 5 | 5 |  |  |  | 5 |  | 5 |  | 5 |  | 5 |  | 5 | 5 | 5 |  | 
CON=Cc1cc(-c2ccc(C(F)(F)F)n(C)c2=O)c(F)cc1Cl [Compound No. 1-72, 5-(1-methyl-6-trifluoromethyl-2(1H)-pyridon-3-yl)-2-chloro-4-fluorobenzaldehydeoxime-O-methyl ether] |  |  | 5 | 5 | 5 |  | 5 |  | 5 |  | 5 |  | 5 |  |  |  | 5 | 5
Cn1c(C(F)(F)F)ccc(-c2cc(C#N)c(Cl)cc2F)c1=O [Compound No. 1-119, 3-(4-chloro-5-cyano-2-fluorophenyl)-1-methyl-6-trifluoromethyl-2(1H)-pyridone] |  |  | 5 | 5 |  | 5 |  | 5 |  | 5 |  | 5 |  | 5 |  |  | 5 | 5
CCCC(=O)c1cc(-c2ccc(C(F)(F)F)n(C)c2=O)c(F)cc1Cl [Compound No. 1-194, 3-[4-chloro-2-fluoro-5-(1-oxobutyl)phenyl]-1-methyl-6-trifluoromethyl-2(1H)-pyridone] | 5 | 5 | 5 | 5 |  | 5 |  | 5 |  | 5 |  | 5 |  | 5 |  |  |  | 
COCc1cc2c(-c3ccc(C(F)(F)F)n(C)c3=O)c(F)cc(Cl)c2o1 [Compound No. 4-4, 3-(7-chloro-5-fluoro-2-methoxymethylbenzofuran-4-yl)-1-methyl-6-trifluoromethyl-2-(1H)-pyridone] | 5 | 5 | 5 | 5 | 5 | 5 | 5 | 5 | 5 | 5 | 5 | 5 | 5 | 5 |  |  |  | 
Cn1c(C(F)(F)F)ccc(-c2c(F)cc(Cl)c3oc(CO)cc23)c1=O [Compound No. 4-5, 3-(7-chloro-5-fluoro-2-hydroxymethylbenzofuran-4-yl)-1-methyl-6-trifluoromethyl-2-(1H)-pyridone] | 5 | 5 | 5 | 5 |  | 5 |  | 5 |  | 5 |  | 5 |  | 5 |  |  |  | 
Cn1c(C(F)(F)F)ccc(-c2c(F)cc(Cl)c3occc23)c1=O [Compound No. 4-28, 3-(7-chloro-5-fluorobenzofuran-4-yl)-1-methyl-6-trifluoromethyl-2-(1H)-pyridone] | 4 | 5 | 5 | 5 | 5 |  | 5 |  | 5 |  | 5 |  | 5 |  |  |  |  | 
